From patent US20180304191A1, “METHOD FOR THE SELECTIVE REMOVAL OF HYDROGEN SULFIDE” (BASF SE, priority 2015, published 2018)

What was measured:
[1] = Dynamic viscosity (Anton Paar Stabinger SVM3000 viscometer); format: physicochemical
Description: The dynamic viscosities of various compounds were measured in a viscometer (Anton Paar Stabinger SVM3000 viscometer).
In addition, the dynamic viscosities of various absorbents (without acid gas loading) were measured in the same instrument.

[2] = pKA determination by titration with hydrochloric acid (pH at half-equivalence); conditions: for pKA1: 1st dissociation stage; for pKA2: 2nd dissociation stage
Description: Measurement was accomplished using a thermostated closed jacketed vessel in which the liquid was blanketed with nitrogen. The Hamilton Polylite Plus 120 pH electrode was used, which was calibrated with pH 7 and pH 12 buffer solutions.

[3] = Thermal stability (decomposition level of the amine in acid-gas-laden absorbent); format: physicochemical; conditions: 160° C., 125 h, 30% by weight amine solution
Description: A Hastelloy cylinder (10 mL) was initially charged with the absorbent (30% by weight amine solution, 8 mL) and the cylinder was closed. […] The acid gas loading of the solutions was 20 m^3 (STP)/tsolvent of CO2 and 20 m^3 (STP)/tsolvent of H2S. The decomposition level of the amines was calculated from the amine concentration measured by gas chromatography before and after the experiment.

[4] = absorbent: amine 30% by wt. in EG 70% by wt., without acid gas loading
[5] = absorbent: amine 30% by wt. in sulfolane 70% by wt., without acid gas loading

Compound | Dynamic viscosity [1, 4] [mPa · s] | Dynamic viscosity ([1]; amine compound itself) [mPa · s] | pKA1 ([2]; 0.01 mol/kg amine, 20° C.) | pKA2 ([2]; 0.01 mol/kg amine, 20° C.) | Dynamic viscosity [1, 5] [mPa · s] | ΔpKA1 (120-20° C.) ([2]; difference of pKA1 between 120° C. and 20° C.) | Thermal stability (comparison in words) [3] | pKA3 ([2]; 0.01 mol/kg amine, 20° C., 3rd dissociation stage) | Dynamic viscosity ([1]; absorbent: amine 30% by wt. in TEG 70% by wt., without acid gas loading) [mPa · s]
CN(C)CCOCCN(C)C [BDMAEE, bis(2-(N,N-dimethylamino)ethyl) ether] | 12.3 | 0.9 | 9.7 | 8.2 | 3.6 |  |  |  | 
CN(C)CCN(C)CCN(C)C [PMDETA, pentamethyldiethylenetriamine] |  | 1.0 | 10.3 | 8.8 |  |  |  | 6.5 | 15.3

Second part, led by results:

Dynamic viscosity [1, 4] [mPa · s] | Dynamic viscosity ([1]; amine compound itself) [mPa · s] | pKA1 ([2]; 0.01 mol/kg amine, 20° C.) | pKA2 ([2]; 0.01 mol/kg amine, 20° C.) | Dynamic viscosity [1, 5] [mPa · s] | ΔpKA1 (120-20° C.) ([2]; difference of pKA1 between 120° C. and 20° C.) | Thermal stability (comparison in words) [3] | Compound | pKA3 ([2]; 0.01 mol/kg amine, 20° C., 3rd dissociation stage) | Dynamic viscosity ([1]; absorbent: amine 30% by wt. in TEG 70% by wt., without acid gas loading) [mPa · s]
25.3 | 1844 |  |  |  |  |  | CCC(N)(CO)CO [AEPD, 2-amino-2-ethylpropane-1,3-diol, reference compound] |  | 
17.2 | 16.9 |  |  |  |  |  | CC(C)(C)NCCOCCO [TBAEE, 2-(2-tert-butylaminoethoxy)ethanol, reference compound] |  | 
 | 1.5 | 10.4 | 8.4 | 5.5 | 2.4 | higher thermal stability than MDEA | CN(C)CCOCCNC(C)(C)C [TBAEEDA, 2-(2-tert-butylaminoethoxy)ethyl-N,N-dimethylamine] |  | 
